Laboratory results published in US20200400567A1, “FUSION POLYPEPTIDE” (PEKING UNIVERSITY, priority 2017, published 2020).
“Also recorded” adds a separate entry of the source. Each block holds one molecule with its values, some of them ahead of it.

Experiments:
[1] = test system: human β2 adrenergic receptor; assay: GRAB-EPI sensor fluorescence response (ΔF/F0) to ISO, drug perfusion in HEK293T cells; type: cell-based; details: GRAB-EPI 1.0 in cells, blocking agent mixed with ISO
Protocol: (§1) After DNA encoding specific GRAB sensor was introduced into cells by transfection, fluorescence imaging combined with perfusion experiment was. The imaging capture of HEK293T cells was performed using an Olympus IX81 inverted microscope, 40×NA: 1.35 oil lens, 475/28 excitation light filter, and 515LP emission light filter. The optical signal was collected by a Zyla sCMOS DG-152V-Cle FI camera (Andor), and Lambda DG-4 from Sutter Instuments company was used as a fluorescent light source. The exposure time was set to less than 50 ms and the acquisition frequency was 5 seconds. The entire imaging system was overall controlled by micromanager software.
The detection of the response of the GRAB sensor to the ligand (ΔF/F0) was performed using a drug perfusion method. […]
Fluorescence imaging data was processed using ImageJ software. For the performance of GRAB sensors in HEK293T cells and neurons, the fluorescence of entire cell body was selected as the data processing region. For living Drosophila imaging, fluorescence images on the same Z axis were analyzed by ImageJ software. The change in the fluorescence signal was indicated by its relative difference. The signal of background area without the expression of the sensor was first subtracted from the fluorescence signal, so as to obtain the real expression of the intensity of the fluorescent protein. […]

[2] = test system: human acetylcholine receptor M3R subtype; assay: GRAB-ACh 1.0 in acute mouse hippocampus brain slices, local perfusion, two-photon imaging; type: cell-based, mice; details: GRAB-ACh 1.0 expressing cells in brain slices
From the text: The DNA encoding GRAB-ACh 1.0 sensor was packed in lentivirus and expressed in the hippocampal neurons of mice, and its fluorescence performance was detected by local perfusion of acetylcholine.

[3] = test system: human acetylcholine receptor M3R subtype; assay: GRAB-ACh sensor fluorescence response to ACh, drug perfusion in HEK293T cells; type: cell-based; details: GRAB-ACh 1.0 in cells, blocking agent mixed with ACh
Protocol: as §1
The detection of the response of the GRAB sensor to the ligand (ΔF/F0) was performed using a drug perfusion method. The cells were placed in a standard physiological solution, and the formula thereof is: […]
The pH of the physiological solution was adjusted to about 7.4, and the small molecule drug was diluted with a part of the physiological solution to formulate solutions of respective concentrations of the small molecule ligand. […] Unless explicitly specified, the concentration of isoproterenol (ISO) for perfusion was 2 μM, and the concentration of acetylcholine for perfusion was 100 μM.
The perfusion system was equipped on a microscope, including a solution-introduced system made of syringe for injection, a multi-way valve, an imaging workbench and a suction pump. During the perfusion process, the imaging workbench was placed above the objective lens of the inverted microscope, and then the slide on which cell plated were placed in the workbench. Perfusion of different drugs were performed by controlling the switches of different pipes. In order to control the level of the solution in the workbench, the perfusion speed was set to one drop or so per second. After each drug treatment, the cells were washed with a physiological solution for more than five minutes to ensure that there were no residual drugs that will affect subsequent experiments. After the end of each experiment, the perfusion pipe and the workbench were cleaned with 75% ethanol three times to ensure that the residual drugs and impurities were fully washed away.
Fluorescence imaging data was processed using ImageJ software. For the performance of GRAB sensors in HEK293T cells and neurons, the fluorescence of entire cell body was selected as the data processing region. For living Drosophila imaging, fluorescence images on the same Z axis were analyzed by ImageJ software. The change in the fluorescence signal was indicated by its relative difference. The signal of background area without the expression of the sensor was first subtracted from the fluorescence signal, so as to obtain the real expression of the intensity of the fluorescent protein. Then, by calculating the fluorescence value F after adding the drug and the average fluorescence value F0 before adding, the relative fluorescence change ΔF/F=(F−F0)/F0 was obtained as the fluorescence response of the sensor to a specific drug. The change of ΔF/F0 with time was further plotted by Origin 8.6 software.
Based on GRAB-ACh 1.0, this peptide linker was optimized. First, based on a flexible amino acid (glycine, alanine), the peptide segment was screened for optimal length. The specific strategy was to change the length of the peptide linkers at the N-terminus and C-terminus from 0 to 5 amino acids, respectively, and to randomly combine the N-terminus with C-terminus to obtain all possible permutations. Fusion protein expression vectors containing various arrangements were expressed in HEK293T cells and subjected to perfusion experiments.

[4] = test system: Gαq-mediated signal transduction pathway; assay: TGFα release in Gαq stable cell lines; type: cell-based
From the text: The coupling of GRAB-ACh4.0 and downstream Gαq was detected. First, three stable cell lines were constructed based on the Gαq cell line: M3R (marked as CHRM3 in FIG. 51), GRAB-ACh4.0, and blank (marked as Gq in FIG. 51) cell lines; then, the release of TGFα was used to characterize the extent to which the Gαq protein was activated. […], causing the release of TGF-α with alkaline phosphatase even when there is no signal from Gαq. Therefore, TPA was added to cells as a positive control.

[5] = test system: human acetylcholine receptor M3R subtype; assay: GRAB-ACh 1.0 in cultured rat cortical neurons, perfusion; type: cell-based
Protocol: Newborn Sprague-Dawley rats were used for the primary culture of rat neurons. After the skin of rat was cleaned with alcohol, the head was dissected with surgical instruments, the brain was removed out and the vascular membrane on the surface of the cortex was carefully removed. The cortical tissue was cut into pieces and placed in a 0.25% trypsin solution, and digested for 10 minutes in an incubator at 37° C. After the digestion, the digestion was terminated with DMEM medium containing 5% FBS, and the cells were further isolated by slowly pipetting up and down ten times with a pipette. After standing for 5 minutes, the pellet containing the tissue debris was discarded and the upper layer solution was collected and centrifuged at 1,000 rpm for 5 minutes in a centrifuge. Thereafter, the supernatant was discarded and the neurons were resuspended with the Neurobasal+B27 medium which was used for culturing the neurons. The cell density was calculated using a cell counting chamber. After that, the cells were diluted at a density of 0.5-1×10^6 cells/ml and plated on the slides coated with poly-lysine (purchased from Sigma). […]
The optical response of neurons expressing the neurotransmitter sensor was observed by perfusion with a neurotransmitter solution. The neurotransmitter-specific optical signals were recorded, which were fast and stable, and have good repeatability in different neurons. […]

human DRD2 receptor = assay: GRAB-GDA3.0 fluorescence response in HEK293T cells, drug perfusion; type: cell-based; details: saturated concentration of dopamine, HEK293T cells
From the text: There are 5 subtypes of human dopamine receptors in the body, which are named DRD1-DRD5. For constructing a fluorescent sensor, the receptors were screened preliminarily by inserting a fluorescent protein at any position in the third intracellular loop of the receptor. […] Specifically, for the third intracellular loop of the human DRD2 receptor, the insertion sites were set every 15 amino acids. Human DRD2 receptors inserted with circular permutated fluorescent proteins at different positions were expressed in HEK293T cells, and drug perfusion experiments were conducted with dopamine. […] After the positions sensitive to conformational change were determined, the surrounding amino acid sites thereof were further screened. The sites surrounding the amino acid position 252 at N-terminus and the sites surrounding the amino acid position 357 at the C-terminus were combined and different sensors were constructed. The sensors were expressed in HEK293T cells and subjected to drug perfusion experiments with dopamine. […] The peptide linkers were GG at the N-terminus and GGAAA at the C-terminus.

[6] = test system: GRAB-GDA3.0 signal in mushroom body (MB); assay: Odor-stimulated GRAB-GDA3.0 signal in mushroom body, in vivo two-photon imaging; set-up: species or system Drosophila
Protocol: Drosophila were kept in a 25-degree incubator with a standard medium. […] The adult Drosophila to be tested were transferred to a new culture tube within 0-2 days after emergence, and left at room temperature for 8-12 days. Before the imaging, the Drosophila were first fixed in a small dish, and then the square skull part near the eye was surgically removed to expose part of the brain. The adipose tissue and air sacs near the antennal lobes to be imaged were surgically removed to prevent interference with the fluorescent signal. In order to further reduce the degradation of image quality caused by the movement of Drosophila during the imaging, surgical forceps were used to cut the muscles underneath its halter. Throughout the dissection and imaging procedures, the brain of Drosophila was kept in a pre-chilled physiological solution, and the formula thereof is as follows: […]
Drosophila imaging was performed using an Olympus two-photon microscope, including Olympus BX61 WI microscope, 25×NA: 1.05 water lens, and Ti:Sapphire laser mode-locked laser for two-photon excitation. For GRAB sensor imaging experiments, the wavelength of the […] was set to 950 nm in order to successfully excite the fluorescent protein to produce fluorescence. The odor molecule isoamyl acetate (IA) used for stimulating Drosophila was purchased from Sigma, and was diluted in mineral oil at a ratio of 1:100. In the experiment, the isoamyl acetate was further diluted 5-40 times by mixing with air. The air mixed with odor molecules was provided at a position about 1 cm away from the tentacles of the Drosophila through a cavity about 1 cm wide on the experimental table. The odor molecule of different concentrations was tested by controlling the airflow. Each imaging cycle was 17.8 seconds, of which 5 to 10 seconds was the time for providing specific odor molecules. After the imaging experiment for odor function, the imaging area was scanned layer by layer with high resolution setting to obtain the distribution information of the olfactory bulb, which was later identified based on the information of olfactory bulb distribution at the antennal lobe reported in the literature.
The transgenic Drosophila UAS-GRAB-GDA3.0 was constructed to express the GRAB-GDA3.0 sensor in specific cells, driven by the corresponding GAL4 strain. First, GRAB-GDA3.0 was expressed in dopaminergic neurons (DAN) in all Drosophila, and the response induced by odor (isoamyl acetate) was examined by in vivo two-photon imaging (FIG. 39A).
A pharmacological study was performed on GRAB-GDA3.0.
The rate of GDA signal attenuation between normal Drosophila and Drosophila with reduced DAT expression was compared (this is the experiment of gene level research using DAT-RNAi described later). In DAN, the dopamine transporter (DAT) is located in the presynaptic membrane and […] DA intermittently and cyclically from the synapse. DAT-RNAi was used to inhibit DAT expression in DAN (FIG. 40G).

[7] = target: GRAB-Oxt-Cter580 sensor (human); assay: cell-based or functional assay
Sequence of GRAB-Oxt-Cter580 sensor (human) (chain, as listed by the source limits assumed): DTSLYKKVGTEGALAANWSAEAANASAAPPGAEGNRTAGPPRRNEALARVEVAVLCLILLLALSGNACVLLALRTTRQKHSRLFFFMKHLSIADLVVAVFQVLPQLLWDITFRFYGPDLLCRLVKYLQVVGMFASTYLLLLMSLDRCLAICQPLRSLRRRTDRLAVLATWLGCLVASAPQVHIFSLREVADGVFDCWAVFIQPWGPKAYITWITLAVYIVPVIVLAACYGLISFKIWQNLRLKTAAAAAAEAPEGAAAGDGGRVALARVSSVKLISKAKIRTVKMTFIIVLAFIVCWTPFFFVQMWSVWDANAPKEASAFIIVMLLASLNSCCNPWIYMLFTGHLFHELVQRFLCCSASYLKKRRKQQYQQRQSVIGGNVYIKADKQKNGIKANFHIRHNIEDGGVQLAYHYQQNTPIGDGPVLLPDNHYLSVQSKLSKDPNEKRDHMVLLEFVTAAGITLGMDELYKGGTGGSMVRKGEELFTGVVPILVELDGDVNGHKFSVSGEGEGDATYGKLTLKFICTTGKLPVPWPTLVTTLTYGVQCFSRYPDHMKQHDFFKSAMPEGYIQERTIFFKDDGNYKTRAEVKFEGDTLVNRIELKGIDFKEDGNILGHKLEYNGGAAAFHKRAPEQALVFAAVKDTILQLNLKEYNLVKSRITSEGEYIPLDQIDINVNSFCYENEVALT

Sequence of GRAB-GDA3.0 signal in mushroom body (MB) (as listed by the source): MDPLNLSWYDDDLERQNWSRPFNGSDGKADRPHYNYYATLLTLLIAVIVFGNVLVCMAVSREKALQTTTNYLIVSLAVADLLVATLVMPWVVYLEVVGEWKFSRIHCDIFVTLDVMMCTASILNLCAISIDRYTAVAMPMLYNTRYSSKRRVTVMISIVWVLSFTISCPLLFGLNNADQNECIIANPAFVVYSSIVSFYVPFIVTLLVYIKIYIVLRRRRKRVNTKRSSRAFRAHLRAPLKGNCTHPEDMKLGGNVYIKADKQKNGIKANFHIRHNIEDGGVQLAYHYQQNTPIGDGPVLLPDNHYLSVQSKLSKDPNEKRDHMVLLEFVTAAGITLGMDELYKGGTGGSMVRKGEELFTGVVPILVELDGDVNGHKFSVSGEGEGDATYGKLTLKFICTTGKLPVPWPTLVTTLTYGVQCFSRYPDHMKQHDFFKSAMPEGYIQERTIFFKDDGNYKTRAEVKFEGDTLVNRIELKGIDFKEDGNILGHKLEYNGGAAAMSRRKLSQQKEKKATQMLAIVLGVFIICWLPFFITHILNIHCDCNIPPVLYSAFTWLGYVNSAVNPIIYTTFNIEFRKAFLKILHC
Sequence of human DRD2 receptor (as listed by the source): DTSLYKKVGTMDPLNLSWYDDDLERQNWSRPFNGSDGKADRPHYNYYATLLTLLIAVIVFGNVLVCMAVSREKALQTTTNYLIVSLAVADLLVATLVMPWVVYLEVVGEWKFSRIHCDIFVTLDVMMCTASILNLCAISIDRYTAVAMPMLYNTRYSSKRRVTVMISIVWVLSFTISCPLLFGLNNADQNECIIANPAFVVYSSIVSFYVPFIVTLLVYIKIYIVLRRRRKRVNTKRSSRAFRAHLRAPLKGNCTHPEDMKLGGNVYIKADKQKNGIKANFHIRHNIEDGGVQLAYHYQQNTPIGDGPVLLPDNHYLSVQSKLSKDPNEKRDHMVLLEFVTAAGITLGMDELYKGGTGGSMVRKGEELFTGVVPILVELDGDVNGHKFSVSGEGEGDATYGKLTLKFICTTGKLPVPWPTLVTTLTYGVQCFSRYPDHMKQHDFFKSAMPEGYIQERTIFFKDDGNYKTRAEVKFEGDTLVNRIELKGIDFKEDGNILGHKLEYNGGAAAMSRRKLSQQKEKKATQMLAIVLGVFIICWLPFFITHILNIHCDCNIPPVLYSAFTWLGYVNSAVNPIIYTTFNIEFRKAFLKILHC

Molecule: Cc1ccc(OCC(O)C(C)NC(C)C)c2c1CCC2 (stereo not shown) [ICI]
- effect of blocking agent on agonist (ISO)-induced fluorescence increase [1]: specifically blocked

Molecule: C[N+](C)(C)CC#CCN1CCCC1=O [Oxo-M]
- fluorescence response to agonist [2]: respond to; also recorded: obvious fluorescence enhancement

Molecule: C[N+]1(C)[C@@H]2C[C@@H](OC(=O)C(O)(c3cccs3)c3cccs3)C[C@H]1[C@@H]1O[C@@H]12 [Tio, Tiotropium bromide]
- effect of blocking agent on ligand (Ach)-induced fluorescence increase [3]: specifically blocked
- effect of antagonist on downstream signal induced by M3R ([4]; ACh): completely block
- effect of receptor blocker on response to acetylcholine [5]: can block

Molecule: GRAB-GDA3.0: human DRD2 receptor, positions 254 to 360 truncated, cpEGFP inserted, linkers GG-GGAAA, SEQ ID NO: 26
- signal change (human DRD2 receptor): 110%
- decay τ of odor-induced GDA signal ([6]; DAT-RNAi Drosophila): 1.85 s
- decay τ of odor-induced GDA signal ([6]; WT Drosophila): 0.48 s

- change in fluorescence signal (ΔF/F0) of the sensor on perfusion with the agonist (% ΔF/F0 at 1 µM Oxytocin) [7]: 10
Molecule: Oxytocin (from UniProt P01178 20-28) (peptide)

Molecule: WT-M3R: natural M3 type acetylcholine receptor without cpEGFP insertion
- activation of Gαq-mediated signal transduction pathway ([4]; gradient concentrations of ACh): activated the Gαq-mediated signal transduction pathway
